Assay results as given in patent US6103707A, “9-(2-deoxy-2-fluoro-4-thio-beta-D-arabinofuranosyl)purine derivatives” (Yamasa Corporation, priority 1996, dated 2000).
≈ marks a conversion by molar mass, not a printed value.

system: HSV-1; test: Anti-HSV-1 activity (plaque-formation inhibition in human embryonic lung fibroblasts); format: cell-based, herpes simplex virus 1 (HSV-1), VR-3 strain; conditions: Human alphaherpesvirus 1, Fibroblast, read-out: Antiviral Activity (ED50) HSV-1
Description: (§1) (1) Anti-HSV-1 Activity and Anti-HSV-2 Activity
(§2) 1. Fibroblasts derived from human embryonic lung tissue are subcultured in an Eagle's MEM supplemented with 10% of pseudo fetal calf serum (Mitsubishi Chemical Corp.), by passing at 1: (2-4) split every 4 or 5 days.
(§3) 2. A cell suspension obtained from the parent cells by passing at 1:2 split is seeded on a 12-well multiplate at a rate of 2 ml/well, and incubated in a CO2 -incubator at 37° C. for 4 days.
(§4) 3. The culture medium is discarded; a Hanks' MEM (250 microlitters) containing 50 to 150 PFU of the VR-3 strain of HSV-1 or the MS strain of HSV-2 is inoculated, thereby allowing the cells to adsorb the virus at 37° C. for 30 minutes; and then the virus liquid is discarded.
(§5) 4. A serum (2.5%)-added Eagle's MEM containing a test agent and 0.8% of methyl cellulose is added; and the resultant is incubated in a CO2 -incubator at 37° C. for 2 to 3 days. In general, the test agent is diluted serially by 1/2 log 10.
(§6) 5. The culture medium is discarded, and the resultant is dyed with a 0.5% solution of crystal violet; the number of plaques in each well is counted under a stereoscopic light microscope; and the rate of plaque-formation inhibition is obtained from the equation below.
(§7) 6. The rates of plaque-formation inhibition are plotted against the concentrations (in logarithm) of the test agent, and, from this dose--plaque-formation inhibition curve, 50% inhibitory concentration (ED50) of the test agent is obtained. [formula] (2) Anti-Varicella Zoster Virus (VZV) Activity

Question: With `Nc1ncnc2c1ncn2[C@@H]1O[C@H](CO)[C@@H](O)[C@@H]1O` [Control Example 1, araA, reference compound] as the compound, how does the EC50 read?
Answer: 17.1 µg/mL (≈ 64 µM)

same assay, conditions: Human alphaherpesvirus 1, Fibroblast; HSV-1 VR-3 strain; human embryonic lung fibroblasts; 2 to 3 days; 50% plaque-formation inhibition; read-out: Antiviral Activity (ED50) HSV-1

Question: Which EC50 does the source give for `Nc1nc2c(ncn2[C@@H]2S[C@H](CO)[C@@H](O)[C@@H]2F)c(=O)[nH]1` [Synthesis Example 3, 9-(2-deoxy-2-fluoro-4-thio-beta-D-arabinofuranosyl)guanine] here?
Answer: 0.0091 µg/mL (≈ 0.0302 µM)

Question: For `Nc1nc(O)c2ncn(COC(CO)CO)c2n1` [Control Example 3, ganciclovir, reference compound], which EC50 is on record?
Answer: 0.016 µg/mL (≈ 0.0627 µM)

Question: With `Nc1nc(N)c2ncn([C@@H]3S[C@H](CO)[C@@H](O)[C@@H]3F)c2n1` [Synthesis Example 2, 9-(2-deoxy-2-fluoro-4-thio-beta-D-arabinofuranosyl)-2,6-diaminopurine] as the compound, how does the EC50 read?
Answer: 0.0057 µg/mL (≈ 0.019 µM)

Question: `Nc1nc2c(ncn2COCCO)c(=O)[nH]1` [Control Example 2, acyclovir, reference compound] was tested. Which EC50 did it give?
Answer: 0.14 µg/mL (≈ 0.622 µM)

Question: With `Nc1ncnc2c1ncn2[C@@H]1S[C@H](CO)[C@@H](O)[C@@H]1F` [Synthesis Example 1, 9-(2-deoxy-2-fluoro-4-thio-beta-D-arabinofuranosyl)adenine] as the compound, how does the EC50 read?
Answer: 1.61 µg/mL (≈ 5.64 µM)

system: VZV; test: microbe, parasite or virus in culture; format: cell-based, varicella-zoster virus (VZV), Oka strain; conditions: Human alphaherpesvirus 3, Fibroblast, read-out: Antiviral Activity (ED50) VZV
Excerpt: as §7, §2, §3
3. The culture medium is discarded; and 750 microlitters of a serum (5%)-added Eagle's MEM containing 50 to 100 PFU of the Oka strain of VZV is inoculated, thereby allowing the cells to adsorb the virus at 37° C. for 1 hour.
4. The same amount of an MEM containing a test agent is added without discarding the virus liquid, and the resultant is incubated in a CO2 -incubator at 37° C. In general, the test agent is diluted serially by 1/2 log 10.
(§8) 5. After 4-5 day incubation, the culture medium is discarded, and the resultant is dyed with a 0.5% solution of crystal violet; the number of plaques in each well is counted under a stereoscopic light microscope; and the rate of plaque-formation inhibition is obtained from the same equation as is used in the above (1).
6. The rates of plaque-formation inhibition are plotted against the concentrations (in logarithm) of the test agent, and, from this dose--plaque-formation inhibition curve, 50% inhibitory concentration (ED50) of the test agent is obtained.

Question: How did the EC50 turn out when `Nc1nc2c(ncn2[C@@H]2S[C@H](CO)[C@@H](O)[C@@H]2F)c(=O)[nH]1` [Synthesis Example 3, 9-(2-deoxy-2-fluoro-4-thio-beta-D-arabinofuranosyl)guanine] was run?
Answer: 0.095 µg/mL (≈ 0.315 µM)

Question: How did the EC50 turn out when `Nc1nc(O)c2ncn(COC(CO)CO)c2n1` [Control Example 3, ganciclovir, reference compound] was run?
Answer: 3.1 µg/mL (≈ 12.1 µM)

Question: With `Nc1nc(N)c2ncn([C@@H]3S[C@H](CO)[C@@H](O)[C@@H]3F)c2n1` [Synthesis Example 2, 9-(2-deoxy-2-fluoro-4-thio-beta-D-arabinofuranosyl)-2,6-diaminopurine] as the compound, how does the EC50 read?
Answer: 0.101 µg/mL (≈ 0.336 µM)

Question: With `Nc1ncnc2c1ncn2[C@@H]1O[C@H](CO)[C@@H](O)[C@@H]1O` [Control Example 1, araA, reference compound] as the compound, how does the EC50 read?
Answer: 1.17 µg/mL (≈ 4.38 µM)

Question: With `Nc1ncnc2c1ncn2[C@@H]1S[C@H](CO)[C@@H](O)[C@@H]1F` [Synthesis Example 1, 9-(2-deoxy-2-fluoro-4-thio-beta-D-arabinofuranosyl)adenine] as the compound, how does the EC50 read?
Answer: 3.04 µg/mL (≈ 10.7 µM)

system: HSV-2; test: Anti-HSV-2 activity (plaque-formation inhibition in human embryonic lung fibroblasts); format: cell-based, herpes simplex virus 2 (HSV-2), MS strain; conditions: Human alphaherpesvirus 2, Fibroblast, read-out: Antiviral Activity (ED50) HSV-2
Description: as §1, §2, §3, §4, §5, §6, §7

Question: With `Nc1ncnc2c1ncn2[C@@H]1O[C@H](CO)[C@@H](O)[C@@H]1O` [Control Example 1, araA, reference compound] as the compound, how does the EC50 read?
Answer: 6.6 µg/mL (≈ 24.7 µM)

same assay, conditions: Human alphaherpesvirus 2, Fibroblast; HSV-2 MS strain; human embryonic lung fibroblasts; 2 to 3 days; 50% plaque-formation inhibition; read-out: Antiviral Activity (ED50) HSV-2

Question: `Nc1nc2c(ncn2[C@@H]2S[C@H](CO)[C@@H](O)[C@@H]2F)c(=O)[nH]1` [Synthesis Example 3, 9-(2-deoxy-2-fluoro-4-thio-beta-D-arabinofuranosyl)guanine] was tested. Which EC50 did it give?
Answer: 0.063 µg/mL (≈ 0.209 µM)

Question: For `Nc1nc(O)c2ncn(COC(CO)CO)c2n1` [Control Example 3, ganciclovir, reference compound], which EC50 is on record?
Answer: 0.039 µg/mL (≈ 0.153 µM)

Question: How did the EC50 turn out when `Nc1nc(N)c2ncn([C@@H]3S[C@H](CO)[C@@H](O)[C@@H]3F)c2n1` [Synthesis Example 2, 9-(2-deoxy-2-fluoro-4-thio-beta-D-arabinofuranosyl)-2,6-diaminopurine] was run?
Answer: 0.05 µg/mL (≈ 0.166 µM)

Question: Which EC50 does the source give for `Nc1nc2c(ncn2COCCO)c(=O)[nH]1` [Control Example 2, acyclovir, reference compound] here?
Answer: 0.23 µg/mL (≈ 1.02 µM)

Question: `Nc1ncnc2c1ncn2[C@@H]1S[C@H](CO)[C@@H](O)[C@@H]1F` [Synthesis Example 1, 9-(2-deoxy-2-fluoro-4-thio-beta-D-arabinofuranosyl)adenine] was tested. Which EC50 did it give?
Answer: 3.07 µg/mL (≈ 10.8 µM)

system: HCMV; test: Anti-Human Cytomegalovirus (HCMV) activity (plaque-formation inhibition in human embryonic lung fibroblasts); format: cell-based; conditions: Human betaherpesvirus 5, AD169, Fibroblast, HCMV AD-169 strain, 4 days plus further 4 to 5 days, 50% plaque-formation inhibition, read-out: Antiviral Activity (ED50) HCMV
Description: (3) Anti-Human Cytomegalovirus (HCMV) Activity
as §2
2. A cell suspension obtained from the parent cells by passing at 1:2 split is seeded on a 24-well multiplate at a rate of 0.8 ml/well, and incubated in a CO2 -incubator at 37° C. for 4 days.
3. The culture medium is discarded; and 400 microlitters of a serum (5%)-added Eagle's MEM containing 50 to 100 PFU of the AD-169 strain of HCMV is inoculated, thereby allowing the cells to adsorb the virus at 37° C. for 1 hour.
4. The same amount of an MEM containing a test agent is added without discarding the virus liquid, and the resultant is incubated in a CO2 -incubator at 37° C. for 4 days. In general, the test agent is diluted serially by 1/2 log 10.
5. The culture medium is replaced with a serum (2.5%)-added Eagle's MEM containing the test agent with the same concentration and 0.8% of methyl cellulose, and incubation is continued for a further 4 to 5 days.
as §8, with “6. The” for “5. After 4-5 day incubation, the”, “May-Gruenwald's and Giemsa (×10) solutions;” for “a 0.5% solution of crystal violet;”
7. The rates of plaque-formation inhibition are plotted against the concentrations (in logarithm) of the test agent, and, from this dose--plaque-formation inhibition curve, 50% inhibitory concentration (ED50) of the test agent is obtained.

Question: With `Nc1nc2c(ncn2[C@@H]2S[C@H](CO)[C@@H](O)[C@@H]2F)c(=O)[nH]1` [Synthesis Example 3, 9-(2-deoxy-2-fluoro-4-thio-beta-D-arabinofuranosyl)guanine] as the compound, how does the EC50 read?
Answer: 0.078 µg/mL

Question: For `Nc1nc(O)c2ncn(COC(CO)CO)c2n1` [Control Example 3, ganciclovir, reference compound], which EC50 is on record?
Answer: 0.21 µg/mL

Question: For `Nc1nc(N)c2ncn([C@@H]3S[C@H](CO)[C@@H](O)[C@@H]3F)c2n1` [Synthesis Example 2, 9-(2-deoxy-2-fluoro-4-thio-beta-D-arabinofuranosyl)-2,6-diaminopurine], which EC50 is on record?
Answer: 0.066 µg/mL

Question: How did the EC50 turn out when `Nc1ncnc2c1ncn2[C@@H]1O[C@H](CO)[C@@H](O)[C@@H]1O` [Control Example 1, araA, reference compound] was run?
Answer: 6.5 µg/mL

Question: How did the EC50 turn out when `Nc1nc2c(ncn2COCCO)c(=O)[nH]1` [Control Example 2, acyclovir, reference compound] was run?
Answer: 6.9 µg/mL

Question: With `Nc1ncnc2c1ncn2[C@@H]1S[C@H](CO)[C@@H](O)[C@@H]1F` [Synthesis Example 1, 9-(2-deoxy-2-fluoro-4-thio-beta-D-arabinofuranosyl)adenine] as the compound, how does the EC50 read?
Answer: 1.41 µg/mL
